Experimental data taken from patent US8163724B2, “Glucocorticosteroids, processes for their preparation, pharmaceutical compositions containing them and their use in therapy” (AstraZeneca AB, priority 2007, dated 2012).

biological target: T1, recombinant human GR (Homo sapiens, UniProt P04150); test: Human Glucocorticoid Receptor (GR) Assay (fluorescence polarization, Panvera/Invitrogen kit); format: binding; conditions: fluorescence polarization; GS Red tracer; 2 hours at room temperature; 100% control 10 μM Dexamethasone; read-out: Inhibition of GR binding, IC50
T1 construct: purchased Panvera/Invitrogen P2812 (kit P2893)
T1 sequence (P04150 1-777): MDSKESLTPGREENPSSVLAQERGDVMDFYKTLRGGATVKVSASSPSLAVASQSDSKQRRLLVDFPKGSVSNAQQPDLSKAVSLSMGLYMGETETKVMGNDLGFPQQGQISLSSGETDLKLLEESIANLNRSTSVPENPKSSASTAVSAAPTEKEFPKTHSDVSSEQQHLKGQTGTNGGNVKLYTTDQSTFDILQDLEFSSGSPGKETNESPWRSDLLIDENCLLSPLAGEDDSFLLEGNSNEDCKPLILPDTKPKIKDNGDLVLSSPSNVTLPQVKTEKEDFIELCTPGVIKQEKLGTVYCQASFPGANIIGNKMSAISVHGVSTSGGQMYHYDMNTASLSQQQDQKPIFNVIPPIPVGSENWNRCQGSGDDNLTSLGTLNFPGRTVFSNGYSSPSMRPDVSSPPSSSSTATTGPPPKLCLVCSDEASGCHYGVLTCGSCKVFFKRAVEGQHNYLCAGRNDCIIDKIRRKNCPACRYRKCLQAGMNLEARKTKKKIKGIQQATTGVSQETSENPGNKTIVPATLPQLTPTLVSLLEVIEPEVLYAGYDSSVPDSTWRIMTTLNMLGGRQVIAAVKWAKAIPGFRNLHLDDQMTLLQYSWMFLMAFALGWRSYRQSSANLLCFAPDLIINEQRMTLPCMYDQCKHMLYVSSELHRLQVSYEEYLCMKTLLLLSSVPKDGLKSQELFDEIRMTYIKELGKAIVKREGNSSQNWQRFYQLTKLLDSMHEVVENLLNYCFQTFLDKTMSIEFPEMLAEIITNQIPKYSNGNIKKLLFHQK
Procedure: Human Glucocorticoid Receptor (GR) Assay
The assay is based on a commercial kit from Panvera/Invitrogen (Part number P2893). The assay technology is fluorescence polarization. […] The GR and Stabilizing Peptide reagents are stored at −70° C. while the GS Red is stored at −20° C. Also included in the kit are 1M DTT (Panvera, Part number P2325, stored at −20° C.) and GR Screening buffer 10× (Panvera, Part number P2814, stored at −70° C. initially but once thawed stored at room temperature). Avoid repeated freeze/thaws for all reagents. The GR Screening buffer 10× comprises 100 mM potassium phosphate, 200 mM sodium molybdate, 1 mM EDTA and 20% DMSO.
0% control was 100% DMSO and 100% control was 10 μM Dexamethasone. Background solution (8 μL; assay buffer 10×, Stabilizing Peptide, DTT and ice cold MQ water) was added to the background wells. GS Red solution (7 μL; assay buffer 10×, Stabilizing Peptide, DTT, GS Red and ice cold water) was added to all wells except background wells. GR solution (7 μL; assay buffer 10×, Stabilizing Peptide, DTT, GR and ice cold water) was added to all wells. The plate was sealed and incubated in a dark at room temperature for 2 hours.

`C[C@]12Cc3cnn(-c4ccc(F)cc4)c3C=C1CC[C@@H]1[C@@H]2[C@@H](O)C[C@@]2(C)[C@H]1CC[C@]2(OC(=O)[C@H]1CCCO1)C(=O)SCC#N` (single isomer, unassigned) [Example 128] and `C[C@]12Cc3cnn(-c4ccc(F)cc4)c3C=C1CC[C@@H]1[C@@H]2[C@@H](O)C[C@@]2(C)[C@H]1CC[C@]2(OC(=O)C1CCCCO1)C(=O)SCC#N` (single isomer, unassigned) [Example 136] are within 1.5-fold of each other in IC50: 3.8 nM for the first, 4.5 nM for the second.

Compared with `C[C@]12Cc3cnn(-c4ccc(F)cc4)c3C=C1CC[C@@H]1[C@@H]2[C@@H](O)C[C@@]2(C)[C@H]1CC[C@]2(OC(=O)C1CCCOC1)C(=O)SCC#N` (single isomer, unassigned) [Example 138], `Cc1ncsc1C(=O)O[C@]1(C(=O)SCC#N)CC[C@H]2[C@@H]3CCC4=Cc5c(cnn5-c5ccc(F)cc5)C[C@]4(C)[C@H]3[C@@H](O)C[C@@]21C` [Example 2, (1R,3aS,3bS,10aR,10bS,11S,12aS)-1-{[(Cyanomethyl)thio]carbonyl}-7-(4-fluorophenyl)-11-hydroxy-10a,12a-dimethyl-1,2,3,3a,3b,4,5,7,10,10a,10b,11,12,12a-tetradecahydrocyclopenta[5,6]naphtho[1,2-f]indazol-1-yl 4-methyl-1,3-thiazole-5-carboxylate] is 1.9-fold higher in IC50: 3.8 nM for the first, 7.4 nM for the second. The first is the more potent here.

Compared with `Cc1ncsc1C(=O)O[C@]1(C(=O)SCF)CC[C@H]2[C@@H]3CCC4=Cc5c(cnn5-c5ccc(F)cc5)C[C@]4(C)[C@H]3[C@@H](O)C[C@@]21C` [Example 1, (1R,3aS,3bS,10aR,10bS,11S,12aS)-1-{[(Fluoromethyl)thio]carbonyl}-7-(4-fluorophenyl)-11-hydroxy-10a,12a-dimethyl-1,2,3,3a,3b,4,5,7,10,10a,10b,11,12,12a-tetradecahydrocyclopenta[5,6]naphtho[1,2-f]indazol-1-yl 4-methyl-1,3-thiazole-5-carboxylate], `CCSC(=O)[C@@]1(OC(=O)c2scnc2C)CC[C@H]2[C@@H]3CCC4=Cc5c(cnn5-c5ccc(F)cc5)C[C@]4(C)[C@H]3[C@@H](O)C[C@@]21C` [Example 3, (1R,3aS,3bS,10aR,10bS,11S,12aS)-1-[(Ethylthio)carbonyl]-7-(4-fluorophenyl)-11-hydroxy-10a,12a-dimethyl-1,2,3,3a,3b,4,5,7,10,10a,10b,11,12,12a-tetradecahydrocyclopenta[5,6]naphtho[1,2-f]indazol-1-yl 4-methyl-1,3-thiazole-5-carboxylate] is 2-fold higher in IC50: 7.6 nM for the first, 15 nM for the second. The first is the more potent here.

Compared with `Cc1nnsc1C(=O)O[C@]1(C(=O)SCF)CC[C@H]2[C@@H]3CCC4=Cc5c(cnn5-c5ccc(F)cc5)C[C@]4(C)[C@H]3[C@@H](O)C[C@@]21C` [Example 4, (1R,3aS,3bS,10aR,10bS,11S,12aS)-1-{[(Fluoromethyl)thio]carbonyl}-7-(4-fluorophenyl)-11-hydroxy-10a,12a-dimethyl-1,2,3,3a,3b,4,5,7,10,10a,10b,11,12,12a-tetradecahydrocyclopenta[5,6]naphtho[1,2-f]indazol-1-yl 4-methyl-1,2,3-thiadiazole-5-carboxylate], `CCSC(=O)[C@@]1(OC(=O)c2snnc2C)CC[C@H]2[C@@H]3CCC4=Cc5c(cnn5-c5ccc(F)cc5)C[C@]4(C)[C@H]3[C@@H](O)C[C@@]21C` [Example 5, (1R,3aS,3bS,10aR,10bS,11S,12aS)-1-[(Ethylthio)carbonyl]-7-(4-fluorophenyl)-11-hydroxy-10a,12a-dimethyl-1,2,3,3a,3b,4,5,7,10,10a,10b,11,12,12a-tetradecahydrocyclopenta[5,6]naphtho[1,2-f]indazol-1-yl 4-methyl-1,2,3-thiadiazole-5-carboxylate] is 2.5-fold higher in IC50: 5.9 nM for the first, 15 nM for the second.
